In ChEMBL document CHEMBL4665634, “Inhibiting Aβ toxicity in Alzheimer's disease by a pyridine amine derivative” (Eur J Med Chem, 2019) one finds log K data, which are given here for 1 molecule.

Structures are written as SMILES.

The nature of assay [1]: Metal chelating activity assessed as Zn2+-compound complex formation by measuring binding constant in 0.1 M KNO3 at 25 degreeC.
The nature of assay [2]: Metal chelating activity assessed as Cu2+-compound complex formation by measuring binding constant in 0.1 M KNO3 at 25 degreeC.

Regarding `c1ccc(CNCc2ccccn2)nc1`, the log K in assay [1] came to 7.6; in assay [2], 9.3.
